The source of these data is patent US7056954B2, “Means for the modulation of processes mediated by retinoid receptors and compounds useful therefor” (The Salk Institute for Biological Studies, priority 1991, dated 2006).

One test addresses T1, RAR-β (Homo sapiens, UniProt P10826).
T1 construct: expressed in transfected cells; host or cells: CV-1 (monkey kidney)
T1 sequence (P10826 1-448 isoform P10826-2): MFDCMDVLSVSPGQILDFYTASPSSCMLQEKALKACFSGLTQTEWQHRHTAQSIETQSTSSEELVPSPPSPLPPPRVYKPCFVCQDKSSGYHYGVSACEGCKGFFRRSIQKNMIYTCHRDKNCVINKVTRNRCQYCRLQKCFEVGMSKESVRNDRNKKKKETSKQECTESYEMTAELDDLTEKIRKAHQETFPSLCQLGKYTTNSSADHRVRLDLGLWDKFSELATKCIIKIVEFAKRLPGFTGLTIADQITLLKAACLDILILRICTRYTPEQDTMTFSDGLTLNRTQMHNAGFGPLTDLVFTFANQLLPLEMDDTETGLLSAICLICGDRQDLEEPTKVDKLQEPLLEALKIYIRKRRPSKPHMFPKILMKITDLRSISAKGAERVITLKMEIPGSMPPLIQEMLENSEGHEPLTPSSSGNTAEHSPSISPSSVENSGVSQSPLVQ
Briefly: Cotransfection assay in CV-1 cells, RAR-beta. The format is cell-based.

The target of the next test is T2, RAR-γ (Homo sapiens, UniProt P13631).
T2 construct: expressed in transfected cells; host or cells: CV-1 (monkey kidney)
T2 sequence (P13631 1-454): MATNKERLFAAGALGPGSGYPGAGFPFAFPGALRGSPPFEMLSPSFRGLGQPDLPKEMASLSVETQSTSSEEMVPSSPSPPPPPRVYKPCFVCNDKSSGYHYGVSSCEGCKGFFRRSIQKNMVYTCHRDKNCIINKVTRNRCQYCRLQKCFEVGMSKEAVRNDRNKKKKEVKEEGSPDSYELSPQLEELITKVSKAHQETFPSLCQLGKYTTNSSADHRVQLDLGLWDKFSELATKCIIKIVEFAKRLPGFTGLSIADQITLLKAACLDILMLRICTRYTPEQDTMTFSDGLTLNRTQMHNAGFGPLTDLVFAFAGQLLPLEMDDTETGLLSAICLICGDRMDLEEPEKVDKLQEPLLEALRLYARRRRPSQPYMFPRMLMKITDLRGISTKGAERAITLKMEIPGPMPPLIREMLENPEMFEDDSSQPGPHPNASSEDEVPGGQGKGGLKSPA
Briefly: Cotransfection assay in CV-1 cells, RAR-gamma. The format is cell-based.

In another test the target is T3, RXR-α (Homo sapiens, UniProt P19793).
T3 construct: expressed in transfected cells; host or cells: CV-1 (monkey kidney)
T3 sequence (P19793 1-462): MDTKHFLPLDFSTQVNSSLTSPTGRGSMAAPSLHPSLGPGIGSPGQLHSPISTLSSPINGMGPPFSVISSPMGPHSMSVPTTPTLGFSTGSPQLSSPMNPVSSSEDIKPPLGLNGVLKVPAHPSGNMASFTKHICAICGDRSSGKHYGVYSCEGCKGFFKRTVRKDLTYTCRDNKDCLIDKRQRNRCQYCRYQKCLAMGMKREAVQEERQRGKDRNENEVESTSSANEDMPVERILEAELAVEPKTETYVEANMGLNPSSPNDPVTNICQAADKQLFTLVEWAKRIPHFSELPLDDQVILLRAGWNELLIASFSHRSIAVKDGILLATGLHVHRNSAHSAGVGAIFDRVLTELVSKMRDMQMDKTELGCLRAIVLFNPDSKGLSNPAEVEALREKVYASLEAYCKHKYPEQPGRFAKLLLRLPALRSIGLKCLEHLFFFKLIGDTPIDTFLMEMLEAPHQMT
Nature of the test: Cotransfection assay in CV-1 cells, RXR-alpha. It counts as cell-based. The note with it: Table 4; for EC50: read-out: Potency.

The target of a further test is T4, RXR-β (Mus musculus, UniProt P28704).
T4 construct: expressed in transfected cells; host or cells: CV-1 (monkey kidney)
T4 sequence (P28704 1-520): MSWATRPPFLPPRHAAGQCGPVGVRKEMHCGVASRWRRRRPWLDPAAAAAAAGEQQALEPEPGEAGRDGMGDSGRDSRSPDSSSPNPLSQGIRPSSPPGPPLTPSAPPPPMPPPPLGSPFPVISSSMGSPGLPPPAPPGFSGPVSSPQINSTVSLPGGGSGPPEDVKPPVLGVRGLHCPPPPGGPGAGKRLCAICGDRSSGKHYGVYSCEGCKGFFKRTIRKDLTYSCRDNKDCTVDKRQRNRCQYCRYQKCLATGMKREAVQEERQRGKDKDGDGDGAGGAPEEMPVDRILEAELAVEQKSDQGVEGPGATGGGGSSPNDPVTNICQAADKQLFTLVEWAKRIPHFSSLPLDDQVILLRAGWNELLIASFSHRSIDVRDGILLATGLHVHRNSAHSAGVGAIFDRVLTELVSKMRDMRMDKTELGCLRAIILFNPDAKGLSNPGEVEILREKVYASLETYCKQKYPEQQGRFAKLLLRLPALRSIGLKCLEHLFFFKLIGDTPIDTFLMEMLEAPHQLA
Nature of the test: Cotransfection assay in CV-1 cells, RXR-beta. The note with it: Table 4; read-out: Potency. The format is cell-based.

The next test has as its target T5, RXR-γ (Mus musculus, UniProt P28705).
T5 construct: expressed in transfected cells; host or cells: CV-1 (monkey kidney)
T5 sequence (P28705 1-463): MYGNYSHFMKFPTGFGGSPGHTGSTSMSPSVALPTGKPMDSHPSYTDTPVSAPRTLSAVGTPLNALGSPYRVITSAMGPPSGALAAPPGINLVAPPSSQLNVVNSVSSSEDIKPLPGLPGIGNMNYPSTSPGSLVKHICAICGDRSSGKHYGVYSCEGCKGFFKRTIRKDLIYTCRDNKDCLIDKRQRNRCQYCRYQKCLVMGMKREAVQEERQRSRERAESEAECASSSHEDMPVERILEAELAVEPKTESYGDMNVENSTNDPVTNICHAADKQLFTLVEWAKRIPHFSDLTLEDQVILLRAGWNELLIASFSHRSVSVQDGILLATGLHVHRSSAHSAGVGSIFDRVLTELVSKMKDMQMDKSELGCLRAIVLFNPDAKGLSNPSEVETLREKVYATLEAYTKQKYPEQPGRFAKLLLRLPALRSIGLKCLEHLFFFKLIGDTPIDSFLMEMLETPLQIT
Briefly: Cotransfection assay in CV-1 cells, RXR-gamma. The format is cell-based. Particulars: Table 4; read-out: Potency.

In test [1] the target is T6, RAR-α (Homo sapiens, UniProt P10276).
T6 sequence (P10276 1-462): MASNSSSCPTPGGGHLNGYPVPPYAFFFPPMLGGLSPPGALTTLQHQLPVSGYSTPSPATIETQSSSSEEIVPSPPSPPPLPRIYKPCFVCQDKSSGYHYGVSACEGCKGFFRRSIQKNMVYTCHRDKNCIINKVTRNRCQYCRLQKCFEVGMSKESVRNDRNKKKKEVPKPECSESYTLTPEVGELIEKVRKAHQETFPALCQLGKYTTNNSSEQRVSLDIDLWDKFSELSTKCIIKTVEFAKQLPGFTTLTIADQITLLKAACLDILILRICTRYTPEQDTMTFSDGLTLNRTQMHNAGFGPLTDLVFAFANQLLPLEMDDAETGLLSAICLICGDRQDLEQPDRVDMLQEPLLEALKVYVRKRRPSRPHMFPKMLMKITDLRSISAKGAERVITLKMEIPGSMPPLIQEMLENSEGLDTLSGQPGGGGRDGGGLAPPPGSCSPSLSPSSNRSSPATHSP
Briefly: Cotransfection assay in CV-1 cells, RAR-alpha. It counts as cell-based. Also noted: expressed in transfected cells; host or cells: CV-1 (monkey kidney). The note with it: for EC50: Table 4.

In test [2] the test system is human primary metastatic melanoma cell line c81–46c. Briefly: In vitro proliferation of human melanoma cell line c81–46c. The format is cell-based.
The test system of test [3] is F9 cells. Nature of the test: F9 cell differentiation, cellular morphology. It counts as cell-based, mouse. An excerpt: Retinoids are known to differentiate mouse teratocarcinoma cells (F9). Differentiation of F9 cells is specifically associated with irreversible changes in morphology and induction of the biochemical marker alkaline phosphatase (ALP) and tissue plasminogen activator (tPA) (Biochem. J. Vol. 274:673–678).

Test [4] deals with T6, RAR-α. Briefly: Binding studies, RAR-alpha. Also noted: made in house; host or cells: bacteria (PET-8c vector).
Test [5] concerns murine melanoma cell line Clone M3. Briefly: In vitro proliferation of murine melanoma cell line Clone M3.
Another test has as its system Rhino mouse. Briefly: Topical application, horn-filled utriculus size in the Rhino mouse. Particulars: 14 days. It counts as in vivo.
In test [6] the test system is F9 cells. Briefly: F9 cell differentiation, induction of alkaline phosphatase. The format is cell-based, mouse. The note with it: maximal responses similar.
Test [7] relates to F9 cells. Nature of the test: F9 cell differentiation, tissue plasminogen activator activity. It counts as cell-based, mouse. The note with it: concentration of 1 μM.

Like-named read-outs stand apart in the source and are kept apart here. Bounds are passed on as bounds.

As for `CC1=C(/C=C/C(C)=C\C=C\C(C)=C\C(=O)O)C(C)(C)CCC1O` (stereo not drawn) [4-hydroxy-9-cis-retinoic acid], the EC50 was found to be 0.16 µM on RAR-β; 0.18 µM at RAR-γ; 1.7 µM on RXR-α; 0.65 µM at RXR-β; 1.7 µM at RXR-γ; 0.38 µM at RAR-α [1] (Potency). Besides, the Efficacy at RAR-β is 71%; on RAR-γ, 81%; at RXR-α (maximal response relative to retinoic acid at 10^−5 M) it was 161%.
On to `CC1=C(/C=C/C(C)=C\C=C\C(C)=C\C(=O)O)C(C)(C)CCC1` [9-cis-retinoic acid], for which the “% Growth inhibition” value is listed as −28% in [2] (Conc added 0.01 μM), −45% in test [2] (Conc added 1 μM), −49% in test [5] (Conc added 0.01 μM) and −85% in [5] (Conc added 1 μM). In the test on F9 cells [3], the “differentiation of F9 cells, irreversible changes in cellular morphology” value was “induced differentiation of F9 cells into partial endoderm-like cells”. The “binding to RAR-alpha” value at RAR-α [4] is given as “high affinity ligand”. Besides, at RAR-α [1] (FIG. 3C), the “potency as an activator of RAR-alpha compared with all-trans-retinoic acid” value is “equipotent”.
Turning to `CC1=C(/C=C/C(=C\C=C\C(C)=C\C(=O)O)c2ccccc2)C(C)(C)CCC1` [9-phenyl-9-cis-retinoic acid], the EC50 was 0.88 µM on RAR-β (Table 4, read-out: Potency); 0.25 µM at RAR-γ (Table 4, read-out: Potency); 0.21 µM on RXR-α; 0.044 µM on RXR-β; 0.29 µM on RXR-γ; over 10 µM on RAR-α [1] (read-out: Potency).
Consider `CC1=C(/C=C/C(C)=C\C=C\C(C)=C\C(=O)O)C(C)(C)CCC1=O` [4-keto-9-cis-retinoic acid], for which the values for the EC50 at RXR-α, on RXR-β and at RXR-γ were 0.52 µM, 1.3 µM and 1.1 µM, respectively.
For the molecule `CC1=C(/C=C/C(C)=C/C=C/C(C)=C/C(=O)O)C(C)(C)CCC1` [all-trans-retinoic acid], the “Pilosebaceous structure size (% red′n)” value in the test on Rhino mouse (0.01% topical) is given as “(−75%)”; in the test with Rhino mouse (0.1% topical), “(−78%)”. In addition, in the test on Rhino mouse (0.1% topical, vehicle control 178 μm), the Pilosebaceous structure size is 44 μm. In addition, in the test on F9 cells [6], the “times more potent than 9-cis-retinoic acid in inducing ALP” value worked out at 40 times. In addition, the “increased cellular activities of tPA” value in the test on F9 cells [7] is reported as 0.80±0.08. Also, the “differentiation of F9 cells, irreversible changes in cellular morphology” value in the test on F9 cells [3] is recorded as “induced differentiation of F9 cells into partial endoderm-like cells”.
